Reference: US7981907B2 (dated 2011)

Row | melting point [°C] | SMILES
1 | 155 to 160 | CC(=O)c1ccc(-c2ccccc2C[S+]([O-])CC(N)=O)cc1 (stereo not drawn)
2 | 153 | Cc1ccc(C[S+]([O-])CC(N)=O)cc1-c1ccccc1 (stereo not drawn)
3 | 34 to 43 | Cc1noc(C)c1-c1cccc(C[S+]([O-])CC(N)=O)c1 (stereo not drawn)
